According to patent EP0269230A1, “Heterocyclic compounds” (priority 1986, dated 1988):
In brackets after ≈: the same amount, converted by molar mass.

Assays:
[1] = test system: Musca domestica (WRL strain); assay: Topical application to unanaesthetised female Musca domestica; type: in vivo; conditions: topical application in cellosolve; mortality assessed after 10 mins, 1 hr, 24 hrs and 48 hrs
Procedure: Mortality was assessed after 10 mins, 1 hr, 24 hrs and 48 hrs.

[2] = test system: Myzus persicae; assay: Lethal activity against insects, spray test on adult Myzus on chinese cabbage leaf disc; type: in vivo; conditions: 10 adult Myzus on leaf disc sprayed, mortality after 2 days at 25°C
Procedure: (§1) The activity of the compounds of the invention was tested by dissolving the compounds in acetone (5%) and then diluting in water: "Symperonic" (94.5%:0.5%) to give a water emulsion. The solution was then used to treat the following insects: Musca domestica, Plutella xylostella, Myzus persicae and Tetranychus urticae.
10 adult Myzus were placed on a leaf disc of chinese cabbage. 24 hours later the disc was sprayed with the solution containing the compound. Mortality was assessed after 2 days at 25°C.

[3] = test system: Musca domestica; assay: Lethal activity against insects, spray test on female Musca domestica; type: in vivo; conditions: sprayed onto 20 female Musca domestica, mortality after 48 hrs at 25°C
Procedure: as §1
20 Female Musca domestica were contained in a cardboard cyclinder with gauze over either end. A solution containing the compounds was sprayed onto the insects so enclosed and mortality assessed after 48 hrs at 25°C.

[4] = test system: Coriolusversicolor, Coniophora putena, Aureobasidium pullulans and Chaetomium globosum; assay: Antifungal testing, primary soft agar screen, inhibition of hyphae growth; type: cell-based; conditions: fungus not specified per compound; for IC50: read-out: IC₅₀
Procedure: The antifungal activity of compounds of the invention was determined using a primary soft agar screen. The concentration dependent inhibition of hyphae growth was determined for Coriolusversicolor, Coniophora putena, Aureobasidium pullulans and Chaetomium globosum.

[5] = Mammalian toxicity, oral, mice; type: in vivo; conditions: given orally to mice (Charles River CD1)
Procedure: 1-(2E)-6-Methoxyimino-3-methylhex-2-enyl-2-methylbenzimidazole and 1-geranyl-2,6,7-trimethylbenzimidazole have an LD₅₀ value of approximately 200 mg when given orally to mice (Charles River CD1).

[6] = test system: Plutella xylostella; assay: Lethal activity against insects, spray test on Plutella larvae on chinese cabbage leaf; type: in vivo; conditions: 7 Plutella larvae and leaf sprayed, mortality after 2 days at 25°C
Procedure: as §1
7 Plutella larvae were sprayed with the solution containing the compound and added to a chinese cabbage leaf which had been similarly sprayed and left to dry. Mortality was assessed after 2-days at 25°C.

[7] = test system: Tetranychus urticae; assay: Lethal activity, spray test on infested french bean leaf discs; type: in vivo; conditions: infested leaf discs sprayed, mortality after 2 days at 25°C
Procedure: as §1
Leaf discs of infested french bean were sprayed with the solution containing the compound. Mortality was assessed after 2 days at 25°C.

1-Geranyl-2-methyl-5(6)-nitrobenzimidazole
LD₅₀ [1]: < 10 µg/fly
active on Myzus persicae at 1000 ppm [2]: active

1-Geranyl-5(6)-methoxy-2-methylbenzimidazole
active at 1000 ppm [3]: active
LD₅₀ [1]: < 10 µg/fly
active on Myzus persicae at 1000 ppm [2]: active
IC₅₀ [4]: 30 ppm

5(6)-Chloro-geranyl-2-methylbenzimidazole
IC₅₀ [4]: 30 ppm

5(6)-Ethoxy-1-geranyl-2-methyl-benzimidazole
IC₅₀ [4]: 30 ppm

CC(=CCn1c(C)nc2ccccc21)CCOC(C)C (mixture of isomers) [(E/Z)-1-(5-isopropoxy-3-methylpent-2-enyl)-2-methylbenzimidazole]
LD₅₀ [1]: < 10 µg/fly

C/C(=C\Cn1c(C)nc2ccccc21)CCC=C(Cl)Cl [1-, (2E)-7,7-Dichloro-3-methylhepta-2,6-dienyl,-2-methylbenzimidazole]
IC50 [4]: 30 µg/mL (≈ 97 µM)

CC(C)=CCC/C(C)=C/Cn1c(C)nc2c(C)cccc21 [1-Geranyl-2,4-dimethylbenzimidazole, 2,4-Dimethyl-1-geranylbenzimidazole]
active at 200 ppm [3]: active
LD₅₀ [1]: < 10 µg/fly
active at 200 ppm [2]: active
IC50 [4]: 30 µg/mL (≈ 106 µM)

CC(C)=CCC/C(C)=C/Cn1c(C)nc2cc(C)c(C)cc21 [1-Geranyl-2,5,6-trimethylbenzimidazole]
IC50 [4]: 30 µg/mL (≈ 101 µM)

CC(C)=CCC/C(C)=C/Cn1c(C)nc2ccc(C)c(C)c21 [1-Geranyl-2,6,7-trimethylbenzimidazole]
active at 1000 ppm [3]: active
LD₅₀ [1]: < 10 µg/fly
active on Myzus persicae at 1000 ppm [2]: active
IC50 [4]: 30 µg/mL (≈ 101 µM)
LD₅₀ [5]: approximately 200 mg

CC(C)=CCC/C(C)=C/Cn1c(C)nc2c([N+](=O)[O-])cccc21 [1-Geranyl-2-methyl-4-nitrobenzimidazole]
active at 1000 ppm [3]: active
LD₅₀ [1]: < 10 µg/fly
active at 200 ppm [2]: active
IC50 [4]: 30 µg/mL (≈ 95.7 µM)

C=CCCC(C)=CCn1c(C)nc2ccccc21 [1-[3-Methylhepta-2,6-dienyl]-2-methylbenzimidazole]
IC50 [4]: 30 µg/mL (≈ 125 µM)

CON=CCC/C(C)=C/Cn1c(C)nc2ccccc21 [1-[(2E)-6-Methoxyimino-3-methylhex-2-enyl]-2-methybenzimidazole]
LD₅₀ [1]: < 10 µg/fly
LD₅₀ [5]: approximately 200 mg

C=CCCC=CCn1c(C)nc2ccccc21 [1-[Hepta-2,6-dienyl]-2-methylbenzimidazole]
IC50 [4]: 30 µg/mL (≈ 133 µM)

CC(C)=CCC/C(C)=C/Cn1c(Cl)nc2ccccc21 [2-Chloro-1-geranylbenzimidazole]
active at 1000 ppm [3]: active
LD₅₀ [1]: < 10 µg/fly
active on Myzus persicae at 1000 ppm [2]: active

C/C(=C\Cn1c(C)nc2ccccc21)CCC=NOCc1ccccc1 [2-Methyl-1-[(2E)-3-methyl-6-benzyloxyiminohex-2-enyl]benzimidazole]
IC50 [4]: 30 µg/mL (≈ 86.3 µM)

CC(C)=CCC/C(C)=C/Cn1c(C)nc2c(Cl)cc(Cl)cc21 [4(7),6(5)-Dichloro-1-geranyl-2-methylbenzimidazole]
IC₅₀ [4]: 30 ppm

CC(C)=CCC/C(C)=C/Cn1c(C)nc2c(N)cccc21 [4-Amino-1-geranyl-2-methylbenzimidazole]
active at 1000 ppm [3]: active
LD₅₀ [1]: < 10 µg/fly
IC50 [4]: 30 µg/mL (≈ 106 µM)

COC(C)(C)CCC/C(C)=C/Cn1c(C)nc2c(C)c(C)ccc21 [(2E)-1-(7-Methoxy-3,7-dimethyloct-2-enyl)-2,4,5-trimethylbenzimidazole]
active at 200 ppm [3]: active
LD₅₀ [1]: < 10 µg/fly
active at 1000 ppm [6]: active
active at 200 ppm [2]: active

COC(C)(C)CCC/C(C)=C/Cn1c(C)nc2c(C)cccc21 [(2E)-1-(7-Methoxy-3,7-dimethyloct-2-enyl)-2,4-dimethylbenzimidazole]
active at 200 ppm [3]: active
LD₅₀ [1]: < 10 µg/fly
active at 200 ppm [2]: active
active against Tetranychus urticae at 200 ppm [7]: active
IC50 [4]: 30 µg/mL (≈ 95.4 µM)

COC(C)(C)CCC/C(C)=C/Cn1c(C)nc2ccc(C)c(C)c21 [(2E)-1-(7-Methoxy-3,7-dimethyloct-2-enyl)-2,6,7-trimethylbenzimidazole]
IC50 [4]: 30 µg/mL (≈ 91.3 µM)

CC=CCC/C(C)=C/Cn1c(C)nc2ccccc21 [(2E)-2-Methyl-1-(3-methlocta-2,6-dienyl)benzimidazole]
LD₅₀ [1]: < 10 µg/fly
IC50 [4]: 30 µg/mL (≈ 118 µM)

CC(C)=CCC/C(C)=C/CC/C(C)=C/Cn1c(C)nc2c(C)cccc21 [(2E,6E)-2,4-dimethyl-1-(3,7,11)-(trimethyldodeca-2,6,10-trienyl)benzimidazole]
IC50 [4]: 30 µg/mL (≈ 85.6 µM)

COc1ccc2c(c1)nc(C)n2C/C=C(\C)CC/C=C(\C)CCC=C(C)C [(2E,6E)-5-Methoxy-2-methyl-1-(3,7,11-trimethyldodeca-2,6,10-trienyl)benzimidazole]
IC50 [4]: 30 µg/mL (≈ 81.8 µM)

C/C(=C\Cn1c(C)nc2ccccc21)CCCC(C)(C)OC(=O)Nc1ccccc1 [(5E)-7-(2-Methylbenzimidazole-1-yl)-1,1,5-trimethylhept-5-enyl-N-phenyl-carbamate]
LD₅₀ [1]: < 10 µg/fly
IC50 [4]: 30 µg/mL (≈ 74 µM)

COC(=O)c1cccc2nc(C)n(C/C=C(\C)CCC=C(C)C)c12 [Methyl 1-geranyl-2-methyl-benzimidazole-7-carboxylate]
IC50 [4]: 30 µg/mL (≈ 91.9 µM)
